Experimental data from US7230020B2, “11β-hydroxysteroid dehydrogenase inhibitors” (priority 2003, dated 2007).
Like-named read-outs stand apart in the source and are kept apart here.

Experiments:
Human 11β HSD1 = biological target: T1, Human 11β HSD1 (Homo sapiens, UniProt P28845); test: biochemical; assay type: biochemical; conditions: for inhibition at 10 µM: read-out: % inhibition of Human 11β HSD1 @10 μM typical sd ± 5% N = 2
T1 construct: human hepatic microsomes were obtained from XenoTech, product H0610/Lot 0210078; tissue XenoTech H0610/Lot 0210078; host or cells: human liver (hepatic microsomes)
T1 sequence (P28845 whole entry): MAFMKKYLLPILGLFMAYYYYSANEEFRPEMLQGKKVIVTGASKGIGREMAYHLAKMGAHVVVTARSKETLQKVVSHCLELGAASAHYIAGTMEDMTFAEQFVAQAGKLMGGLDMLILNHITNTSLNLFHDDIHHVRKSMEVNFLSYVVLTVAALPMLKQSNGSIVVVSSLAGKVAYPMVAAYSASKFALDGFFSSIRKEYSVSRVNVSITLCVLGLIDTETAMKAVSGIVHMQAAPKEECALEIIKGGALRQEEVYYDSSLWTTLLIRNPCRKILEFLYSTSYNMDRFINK
Method: Standard Operating Procedure for the 11β-Hydroxysteroid Dehydrogenase Type 1 cortisol Radioimmunoassay (11β HSD1 Cortisol RIA).
30 mM Tris-HCL, pH 7.2 containing 1 mM EDTA.
50 mM Tris-HCL, pH 8, containing 0.1 M NaCl and 0.1% gelatin.
Prepare 10 mM stock solutions in 100% DMSO at 100 times the required assay concentration. Dilute into assay buffer 1 in 25. Also dilute neat DMSO 1 in 25 into assay buffer for controls.
Dilute this 1 in 50 into assay buffer.
Prepare NADPH as a 1.8 mg/ml solution in assay buffer.
Mix these 3solutions 1:1:1 to make a solution of sufficient volume for 25 μl additions to each sample. Add 0.5 μCi tritiated cortisone per 25 μl and mix the solution well.
Dilute stock 20 mg/ml solution 1 in 100 with assay buffer.
Dilute stock antibody solution to 17 μg/ml in antibody binding buffer.
Make a 20 mg/ml solution in antibody binding buffer and chill on ice.
To a u-bottom polypropylene 96 well plate add: • 25 μl compound dilution or diluted DMSO to controls, NSB's and blanks • 10 μl 1 mM GA in DMSO (enzyme stop solution) to blanks • 25 μl substrate mixture to all samples • 50 μl diluted microsomes to all samples • Incubate plate for 30 min at 37° C. shaking p0 Add 10 μl enzyme stop solution to all wells except the blanks • Add 100 μl antibody solution to all wells except the NSB's, add antibody binding buffer to these wells • Incubate at 37° C. for 1 h • Chill plate on ice for 15 min • Add 50 μl/well charcoal solution and mix with an 8-channel pipette (4-5 aspirations) • Chill the plate on ice • Centrifuge at 4° C., 2000×g for 15 min • Transfer 100 μl supernatant into an Optiplate, also add 25 μl substrate mixture to 2 empty wells to indicate counting efficiency • Add 200 μl Microscint-40 to all wells and count on a Topcount Radioimmunoassay
The 11β HSD1 enzyme assay was carried out following the standard operating procedure described above in u-bottom polypropylene 96 well plates or 1.5 ml Eppendorf tubes as indicated for each experiment. Subsequent to stopping the enzyme reaction, 100 μl antibody prepared in buffer 3 unless otherwise indicated was added to test samples and 100 μl buffer 3 was added to the NSB samples. The samples were incubated for 1 hour at 37° C. and the chilled on ice for 15 mins. Dextran coated charcoal (50 μl/sample) prepared to the indicated concentration in buffer 3 was added and the samples were mixed (vortex for tubes and aspiration 5 times with an 8-channel pipette for 96 well plates) and chilled for a further 10 min. The samples were centrifuged at 2000×g for 15 min at 4° C. to pellet the charcoal. Aliquots of the supernatant (100 μl) were transferred to an Optiplate and counted on the Topcount in 150-200 μl Microscint 40. In some experiments, aliquots of supernatant were transferred to scintillation vials and counted on the Tricarb LSC in 5 ml Ultima Gold scintillant.

[1] = compound 10 μM, human hepatic microsomes, cortisone 175 nM, typical sd ± 5%, N = 2

melting point [°C] | Compound | inhibition at 10 µM (Human 11β HSD1) [%] | other results
 | COc1ccc(S(=O)(=O)Nc2ccc(S(=O)(=O)Nc3nc(C)cc(C)n3)cc2)cc1OC [compound 558] | 31.2 | 
203 to 204 | COc1cccc(C(=O)Nc2ccc3c(c2)CCC3=O)c1 |  | 
 | CCCc1ccc(S(=O)(=O)Nc2ccc3nccnc3c2)cc1 [compound 958] | 58.1 | 
 | COc1cccc(NC(=O)Nc2ccc(S(=O)(=O)Nc3cc(C)on3)cc2)c1 [compound 556] | 46.2 | 
 | O=S(=O)(NCCO)c1ccc(NS(=O)(=O)c2ccc(Cl)cc2Cl)cc1 [compound 653] | 36.4 | 
99 to 100 | O=C(NCCc1cccs1)c1cc(Cl)ccc1Cl |  | 
 | COc1ccc(S(=O)(=O)Nc2ccc(S(=O)(=O)Nc3cc(C)on3)cc2)cc1 [compound 555] | 53 | 
 | CCCc1ccc(S(=O)(=O)N(CC2CCNCC2)S(=O)(=O)c2ccc(CCC)cc2)cc1 [compound 576] |  | inhibition at 10 µM (Human 11β HSD1; [1]): 47.7%
 | Cc1c(Cl)cccc1S(=O)(=O)Nc1ccc2c(c1)OCCO2 [compound 990] | 73.3 | 
257 to 258 | Cc1nc2c(Cl)c(NC(=O)Cc3ccc(Cl)cc3Cl)ccc2s1 |  | 
174 to 176 | CCCc1ccc(C(=O)Nc2ccc(C(C)=O)cc2)cc1 |  | 
199 to 200 | CC(=O)c1ccc(NC(=O)c2cc(Cl)cc(Cl)c2)cc1 |  | 
 | Cc1c(Cl)cccc1S(=O)(=O)Nc1ccc2c(C)cc(=O)oc2c1 [compound 980] | 61.2 | 
 | CCCc1ccc(S(=O)(=O)Nc2ccc3oncc3c2)cc1 [compound 919] | 25.4 | 
182 | COc1ccc(C(=O)Nc2ccc3sc(C)nc3c2Cl)cc1 |  | 
 | Cc1ccc2cc(NS(=O)(=O)c3cccc(Cl)c3C)ccc2n1 [compound 935] | 20.7 | 
139 to 141 | COc1cccc(C(=O)Nc2ccc(C(=O)c3ccccc3)cc2)c1 |  | 
 | COC(=O)c1cc2cc(NS(=O)(=O)c3cccc(Cl)c3C)ccc2s1 [compound 971] | 49.6 | 
97 to 99 | CCCc1ccc(C(=O)NCCc2cccs2)cc1 |  | 
164 to 166 | O=C(NCCc1cccs1)c1ccc(-c2ccccc2)cc1 |  | 
 | COc1ccc(S(=O)(=O)Nc2ccc(S(=O)(=O)NCCO)cc2)cc1OC [compound 649] | 26.3 | 
 | COC(=O)c1cc2cc(NS(=O)(=O)c3cccc(Cl)c3C)ccc2o1 [compound 973] | 33.1 | 
173 to 174 | COc1ccc(CC(=O)Nc2ccc3sc(C)nc3c2Cl)cc1 |  | 

melting point [°C] | Compound | inhibition at 10 µM (Human 11β HSD1) [%] | other results
 | Cc1c(Cl)cccc1S(=O)(=O)Nc1ccc2c(c1)C(=O)N(C)C2=O [compound 979] | 54.1 | 
 | CCCc1ccc(S(=O)(=O)Nc2ccc3nc(C)cnc3c2)cc1 [compound 956] | 64.8 | 
275 to 277 | Cc1nc2cc(NC(=O)c3ccc(Cl)cc3Cl)ccc2n1C |  | 
218 to 221 | O=C(Nc1ccc2c(c1)CCC2=O)c1cc(Cl)ccc1Cl |  | 
214 to 218 | CCCc1ccc(C(=O)Nc2ccc3c(c2)nc(C)n3C)cc1 |  | 
 | Cc1cc(NS(=O)(=O)c2ccc(NS(=O)(=O)c3ccc(Cl)cc3Cl)cc2)no1 [compound 644] | 37.1 | 
 | COc1ccc(S(=O)(=O)Nc2ccc(S(=O)(=O)NCCOS(=O)(=O)c3ccc(OC)cc3)cc2)cc1 [compound 647] | 34.5 | 
226 to 228 | O=C(Nc1ccc2c(c1)CCCC2=O)c1cc(Cl)cc(Cl)c1 |  | 
 | Cc1nc2cc(NC(=O)c3cc(Cl)cc(Cl)c3)ccc2s1 [compound 520] | 43.5 | 
270 to 270.3 | CC1Nc2ccc(NC(=O)c3ccc(-c4ccccc4)cc3)cc2N1C (stereo not shown) |  | 
227 to 229 | Cc1nc2c(Cl)c(NC(=O)Cc3ccc(Cl)cc3)ccc2s1 |  | 
245 to 247 | Cc1nc2cc(N(C)C(=O)c3ccc(Cl)cc3Cl)ccc2n1C |  | 
 | Cc1cc(NS(=O)(=O)c2ccc(N)c(Cl)c2)no1 [compound 654] | 32.1 | 
237 to 238 | COc1ccc(C(=O)Nc2ccc3c(c2)CCC3=O)cc1 |  | 
 | COc1ccc(S(=O)(=O)Nc2ccc(S(=O)(=O)NCCO)cc2)cc1 [compound 646] | 48.5 | 
 | O=S(=O)(Nc1ccc2oncc2c1)c1cc(Cl)ccc1Cl [compound 920] | 27.5 | 
175 | Cc1nc2c(Cl)c(NC(=O)c3cc(Cl)ccc3Cl)ccc2s1 |  | 
 | Cc1c(Cl)cccc1S(=O)(=O)Nc1ccc2occ(C)c2c1 [compound 972] | 59.2 | 
212 to 213 | O=C(Nc1ccc(C(=O)c2ccccc2)cc1)c1ccc(-c2ccccc2)cc1 |  | 
100 to 102 | O=C(NCCc1cccs1)c1cc(Cl)cc(Cl)c1 |  | 
 | Cc1c(Cl)cccc1S(=O)(=O)Nc1ccc2nccnc2c1 [compound 957] | 55.5 | 
142 to 143 | COc1cccc(C(=O)Nc2ccc3c(c2)CCCC3=O)c1 |  | 
 | CC(=O)Nc1nsc2ccc(NS(=O)(=O)c3cccc(Cl)c3C)cc12 [compound 929] | 31 | 

melting point [°C] | Compound | inhibition at 10 µM (Human 11β HSD1) [%] | other results
 | CCCc1ccc(C(=O)N(C)c2ccc3sc(C)nc3c2)cc1 [compound 472] | 71.4 | 
 | Cc1cc(NS(=O)(=O)c2cc(Cl)ccc2Cl)no1 [compound 823] | 42.9 | 
 | Cc1cnc2cc(NS(=O)(=O)c3cccc(Cl)c3C)ccc2n1 [compound 955] | 60.8 | 
 | Cc1c(Cl)cccc1S(=O)(=O)Nc1ccc2c(c1)-c1ccccc1C2=O [compound 1033] | 62.6 | 
 | Cc1c(Cl)cccc1S(=O)(=O)Nc1ccc2[nH]ncc2c1 [compound 983] | 41.9 | 
 | CCCc1ccc(S(=O)(=O)NCc2ccccn2)cc1 [compound 702] | 37.6 | 
 | CC(=O)Nc1ccc(S(=O)(=O)NNC(=O)CSc2ncnc3c(C)csc23)cc1 [compound 557] | 51.3 | 
 | CCCc1ccc(C(=O)Nc2ccc3sc(C)nc3c2)cc1 [compound 471] | 53.7 | 
 | Cc1noc2ccc(NS(=O)(=O)c3cc(Cl)ccc3Cl)cc12 [compound 876] | 23.6 | 
 | CC(=O)Nc1ccc(S(=O)(=O)Nc2cc(C)on2)cc1Cl [compound 645] | 42 | 
 | COc1cc(C)c(S(=O)(=O)Nc2ccc(S(=O)(=O)NCCOS(=O)(=O)c3c(C)cc(OC)c(C)c3C)cc2)c(C)c1C [compound 652] | 31.8 | 
 | Cc1ccc2cc(NS(=O)(=O)c3cc(Cl)ccc3Cl)ccc2n1 [compound 937] | 36.6 | 
 | CC(=O)Nc1ccc(S(=O)(=O)Nc2cc(C)on2)cc1 [compound 606] |  | inhibition at 10 µM (Human 11β HSD1; [1]): 22.1%
 | Cc1c(Cl)cccc1S(=O)(=O)Nc1ccc2c(cnn2C)c1 [compound 988] | 56 | 
 | CCCc1ccc(S(=O)(=O)Nc2ccc3nc(C)ccc3c2)cc1 [compound 936] | 42.3 | 
 | CC1(C)[C@@H](OC(=O)CCC(=O)O)CC[C@]2(C)[C@H]3C(=O)C=C4[C@@H]5C[C@@](C)(C(=O)O)CC[C@]5(C)CC[C@@]4(C)[C@]3(C)CC[C@@H]12 [carbenoxolone, Carbenoxolone, reference compound] |  | times more active than is suggested by Barf et al. [14] (Human 11β HSD1; 350 nM cortisone, 0.3% DMSO, RIA buffer (Buffer 3) (FIG. 23)): about 5 times
 | Cc1c(Cl)cccc1S(=O)(=O)Nc1ccc2scc(C)c2c1 [compound 1015] | 64.6 | 
 | CCCc1ccc(S(=O)(=O)Nc2ccc(OC)nc2)cc1 [compound 577] | 54.6 | 
 | Cc1cc(NS(=O)(=O)c2cccc(Cl)c2C)no1 [compound 825] | 23.2 | 
 | Cc1nc2cc(CSc3cc(Cl)ccc3Cl)ccc2s1 [compound 1031] | 45.6 | 
 | Cc1cc2cc(NS(=O)(=O)c3cccc(Cl)c3C)ccc2o1 [compound 1038] | 28.7 | 

Compound | melting point [°C] | inhibition at 10 µM (Human 11β HSD1) [%] | other results
Cc1cnc2cc(NS(=O)(=O)c3cccc(Cl)c3C)ccc2n1 | 163 to 164 |  | 
Cc1nc2cc(NC(=O)c3cc(Cl)cc(Cl)c3)ccc2s1 | 194 |  | 
CCCc1ccc(C(=O)Nc2ccc3sc(C)nc3c2)cc1 | 148 to 149 |  | 
